The IC50 is the midpoint of a concentration-inhibition curve. Higher therefore signals weaker potency in that assay.

The structures appear in SMILES notation. Where two headings read alike, the source gives them in different places.

Consider 2 compounds from paper PMC4240912, “Multifaceted interplay between lipophilicity, protein interaction and luminescence parameters of non-intercalative ruthenium(II) polypyridyl complexes controlling cellular imaging and cytotoxic properties” (Journal of Biological Inorganic Chemistry, 2014).

In data set [1] the test system is 4T1 breast cancer cell line. Kind of data set: Alamar Blue cell viability, 4T1. Type of data set: cell-based. The following applies: 4T1, 24 h incubation. The protocol:
4T1 breast cancer cell line was cultured in RPMI-1640 (Gibco Invitrogen) with 10 % fetal bovine serum (FBS, the bovine serum albumin is a major component), 1 % penicillin and streptomycin and 0.2 % fungizone. Cells were routinely cultured at 37 °C in a humidified incubator in 5 % CO2 atmosphere. Cell viability was measured using Alamar Blue assay. Cells were seeded on 96-well plate with density of 10^4 cells per cm^2 and cultured for 24 h in medium with or without 2 % serum. Then cells were incubated with various concentrations of ruthenium compounds for 24 h in the dark. All used ruthenium complexes were freshly diluted in DMSO and then added to the appropriate medium to obtain the applied concentrations. The final DMSO concentration was kept constant at 0.05 % (v/v). Next cells were washed with PBS and incubated in AlamarBlue solution (21 times diluted in PBS) for 3 h. Alamar Blue test is based on the reduction of blue and non-fluorescent subtract (resazurin) to a pink and highly fluorescent product (resorufin) by the alive cells. Extract mechanism of the reduction is still unknown, but it is postulated that reduction occurs by mitochondrial or cytoplasmic enzymes, such as NADH dehydrogenase or diaphorase. It is still not known whether this process occurs intracellularly, at the plasma membrane surface or just in the medium as a chemical reaction. The cell viability was quantified at 605 nm using 560 nm excitation light (VICTOR 3V multilabel plate readers, PerkinElmer). Experiments were performed in triplicates and each experiment was performed at least three times to get the mean values ± standard deviation. The viability was calculated with regard to the untreated cells control. The IC50 values were determined using Hill equation (Origin 9.0): y=y0+y100-y0c^H/IC50^H+c^H
For orientation: The colour change of resazurin is a common sign of viable cells or microbes.

In data set [2] the test system is murine endothelial cells isolated from aorta-gonad-mesonephros (AGM) region of 10.5 dpc embryos (MAgEC 10.5). Briefly: Alamar Blue cell viability, MAgEC 10.5. The following applies: MAgEC 10.5, 24 h. Type of data set: cell-based. The protocol: (§1) FVB mouse lung microvascular endothelial cells (MLuMEC FVB) and murine endothelial cells isolated from aorta-gonad-mesonephros (AGM) region of 10.5 dpc embryos (MAgEC 10.5) were cultured in OptiMEM with Glutamax-I (Gibco Invitrogen) supplemented with 2% fetal bovine serum (FBS), 0.4% gentamycin and 0.2% fungizone. […]
(§2) 10% FBS, 1% peniciline and streptomycin and 0.2% fungizone. Cells were routinely cultured at 37 °C in a humidified incubator in 5% CO2 atmosphere.
(§3) Cell viability was measured using Alamar Blue assay. Cells were seeded on 96 wells plate with density of 1 × 10^4 cells per cm2 and cultured for 1 day. Then cells were incubated with various concentrations of compounds in medium with or without 2% FBS for 24 and 48 h under normoxic and hypoxic conditions in the darkness. Next cells were washed with PBS and incubated in Alamar Blue solution for 3 h. The cell viability was quantified at 605 nm using 560 nm excitation light (VICTOR 3V multilabel plate reader PerkinElmer or Tecan Infinite200 Reader). Experiments were performed in triplicates and each experiment was performed at least three times to get the mean values ± standard derivation. The viability was calculated with regard to the untreated cells control. The IC50 values were determined using Hill equation (Origin 9.0). […]

In data set [3] the test system is Human lung adenocarcinoma epithelial cell line (A549). Kind of data set: Alamar Blue cell viability, A549. Type of data set: cell-based. To be noted: A549, 24 h. On the procedure:
as §2, §3

The test system of data set [4] is FVB mouse lung microvascular endothelial cells (MLuMEC FVB). Kind of data set: Alamar Blue cell viability, MLuMEC. To be noted: 24 h. Type of data set: cell-based. The protocol:
as §1, §2, §3

The conditions of data set [5]: aqueous solution, cited from earlier work.

`N.N.[Cl][Pt][Cl]` [Cisplatin, reference compound]: the IC50 was found to be 59.8 ± 8.32 µM in data set [1] (medium with serum (2 %)); 73 ± 14.9 µM in data set [1] (medium without serum); 8.75 ± 0.2 µM in data set [2] (with serum (2%)); 9.38 ± 0.67 µM in data set [2] (without serum); 71.3 ± 22.9 µM in data set [3] (with serum (2%)); 126 ± 30.5 µM in data set [3] (without serum). Also, the IC50 in data set [4] (with serum (2%)) is 14.5 ± 1.4 µM; in data set [4] (without serum), 24.6 ± 2.89 µM.
For `[Ru+2].c1ccc(-c2ccccn2)nc1.c1ccc(-c2ccccn2)nc1.c1ccc(-c2ccccn2)nc1` [[Ru(bpy)3]^2+, reference compound], the “Φ, quantum yield of luminescence (standard)” value was 0.028 in data set [5] (air-equilibrium conditions, ref [14]) and 0.042 in data set [5] (deoxygenated conditions, ref [20]).
